Active and inactive are the calls of the source. The calls are words filed in the database; no cut-off is given here.
What was measured:
HeLa [1] = experiment: Induction of apoptosis in human HeLa cells assessed as reduction in F-actin expression at 0.75 to 0.5 uM incubated for 18 hrs by immunostaining assay; assay type: cell-based
HeLa [2] = experiment: Induction of apoptosis in human HeLa cells assessed as reduction in vinculin expression at 0.75 to 0.5 uM incubated for 18 hrs by immunostaining assay; assay type: cell-based
HeLa [3] = experiment: Induction of apoptosis in human HeLa cells assessed as reduction in F-actin expression at 0.5 uM incubated for 18 hrs followed by red light irradiation measured after 3 hrs by immunostaining assay; assay type: functional, cell-based
HeLa [4] = experiment: Induction of apoptosis in human HeLa cells assessed as reduction in vinculin expression at 0.5 uM incubated for 18 hrs followed by red light irradiation measured after 3 hrs by immunostaining assay; assay type: functional, cell-based
HeLa [5] = experiment: Induction of necrosis in human HeLa cells assessed as disorganization of F-actin at 0.75 uM incubated for 18 hrs followed by red light irradiation measured after 24 hrs by immunostaining; assay type: functional, cell-based
HeLa [6] = experiment: Induction of necrosis in human HeLa cells assessed as cellular damage at 0.75 uM incubated for 18 hrs followed by red light irradiation measured after 24 hrs; assay type: functional, cell-based
HeLa [7] = experiment: Induction of apoptosis in human HeLa cells assessed as reduction in vinculin expression at 0.5 uM incubated for 18 hrs followed by red light irradiation measured after 24 hrs by immunostaining assay; assay type: functional, cell-based
HeLa [8] = experiment: Induction of apoptosis in human HeLa cells assessed as membrane bubble at 0.5 uM incubated for 18 hrs followed by red light irradiation measured after 6 hrs by immunostaining assay; assay type: functional, cell-based
HeLa [9] = experiment: Induction of apoptosis in human HeLa cells assessed as apoptotic chromatin at 0.5 uM incubated for 18 hrs followed by red light irradiation measured after 6 hrs by immunostaining assay; assay type: functional, cell-based
HeLa [10] = experiment: Induction of apoptosis in human HeLa cells assessed as reduction in F-actin expression at 0.5 uM incubated for 18 hrs followed by red light irradiation measured after 6 hrs by immunostaining assay; assay type: functional, cell-based
HeLa [11] = experiment: Induction of apoptosis in human HeLa cells assessed as reduction in vinculin expression at 0.5 uM incubated for 18 hrs followed by red light irradiation measured after 6 hrs by immunostaining assay; assay type: functional, cell-based
HeLa [12] = experiment: Induction of apoptosis in human HeLa cells assessed as microtubule alteration at 0.75 uM incubated for 18 hrs followed by red light irradiation after 3 to 24 hrs by […]; assay type: functional, cell-based
HeLa [13] = experiment: Induction of apoptosis in human HeLa cells assessed as microtubule alteration at 0.5 uM incubated for 18 hrs followed by red light irradiation after 6 to 24 hrs by […]; assay type: functional, cell-based
HeLa [14] = experiment: Induction of apoptosis in human HeLa cells assessed as reduction in cell volume at 0.5 uM incubated for 18 hrs followed by red light irradiation measured after 3 hrs by Hoechst-33258 staining; assay type: functional, cell-based
HeLa [15] = experiment: Induction of necrosis in human HeLa cells at 0.5 to 0.75 uM incubated for 18 hrs by Hoechst-33258 staining; assay type: cell-based
HeLa [16] = experiment: Induction of necrosis in human HeLa cells at 0.75 uM incubated for 18 hrs followed by red light irradiation by Hoechst-33258 staining; assay type: functional, cell-based
HeLa [17] = experiment: Induction of apoptosis in human HeLa cells at 0.5 uM incubated for 18 hrs followed by red light irradiation by Hoechst-33258 staining; assay type: functional
HeLa [18] = experiment: Induction of apoptosis in human HeLa cells assessed as membrane blebbing at 0.5 uM incubated for 18 hrs prior to red light irradiation measured after 6 hrs by phase contrast microscopy; assay type: functional, cell-based
HeLa [19] = experiment: Induction of apoptosis in human HeLa cells assessed as fragmented chromatin at 0.5 uM incubated for 18 hrs prior to red light irradiation measured after 6 hrs by immunofluorescence method; assay type: functional, cell-based
HeLa [20] = experiment: Induction of apoptosis in human HeLa cells assessed as swollen mitochondria at 0.5 uM incubated for 18 hrs prior to red light irradiation measured after 3 hrs by immunofluorescence method; assay type: functional, cell-based
HeLa [21] = experiment: Induction of apoptosis in human HeLa cells at 0.5 uM incubated for 18 hrs prior to red light irradiation measured after 6 hrs by TUNEL assay; assay type: functional, cell-based
HeLa [22] = experiment: Induction of apoptosis in human HeLa cells at 0.5 uM incubated for 18 hrs prior to red light irradiation measured after 24 hrs; assay type: functional
HeLa [23] = experiment: Induction of apoptosis in human HeLa cells assessed as relocalization of proapoptotic Bax protein within mitochondria at 0.5 uM incubated for 18 hrs prior to red light irradiation measured after 3 to 24 hrs by indirect immunofluorescence; assay type: functional, cell-based
HeLa [24] = experiment: Induction of necrosis in human HeLa cells assessed as breaking of giant bubble at 0.75 uM incubated for 18 hrs prior to red light irradiation measured after 6 hrs by phase contrast microscopy; assay type: functional, cell-based
HeLa [25] = experiment: Induction of necrosis in human HeLa cells assessed as chromatin condensation at 0.75 uM incubated for 18 hrs prior to red light irradiation measured after 1 hr by Hoechst-33258 staining; assay type: functional, cell-based
HeLa [26] = experiment: Induction of necrosis in human HeLa cells assessed as giant bubble formation at 0.75 uM incubated for 18 hrs prior to red light irradiation measured after 1 hr by phase contrast microscopy; assay type: functional, cell-based
HeLa [27] = experiment: Induction of necrosis in human HeLa cells at 0.5 uM incubated for 18 hrs prior to red light irradiation measured after 6 to 24 hrs by Hoechst-33258 staining; assay type: functional, cell-based
HeLa [28] = experiment: Induction of necrosis in human HeLa cells at 0.5 uM incubated for 18 hrs prior to red light irradiation measured after 6 to 24 hrs by neutral red staining; assay type: functional, cell-based
HeLa [29] = experiment: Induction of apoptosis in human HeLa cells at 0.5 uM incubated for 18 hrs prior to red light irradiation measured after 6 to 24 hrs by Hoechst-33258 staining; assay type: functional, cell-based
HeLa [30] = experiment: Induction of apoptosis in human HeLa cells at 0.5 uM incubated for 18 hrs prior to red light irradiation measured after 6 to 24 hrs by neutral red staining; assay type: functional, cell-based
HeLa [31] = experiment: Induction of apoptosis in human HeLa cells assessed as nuclear fragmentation at 0.5 uM incubated for 18 hrs prior to red light irradiation measured after 3 hrs by Hoechst-33258 staining; assay type: functional, cell-based
HeLa [32] = experiment: Induction of apoptosis in human HeLa cells assessed as chromatin condensation at 0.5 uM incubated for 18 hrs prior to red light irradiation measured after 3 hrs by Hoechst-33258 staining; assay type: functional, cell-based

In the case of `COCc1ccc(C2=Cc3nc2ccc2[nH]c(cc2-c2ccc(C[n+]4ccccc4)cc2)c2nc(ccc4[nH]c3cc4-c3ccc(C[n+]4ccccc4)cc3)C(c3ccc(C[n+]4ccccc4)cc3)=C2)cc1.[Br-].[Br-].[Br-]`, the Activity (HeLa [1]) is reported as “Non-toxic”, the Activity (HeLa [2]) is reported as “Non-toxic” and the Activity (HeLa [3]) is reported as “Active”. The Activity (HeLa [4]) was “Active”, the Activity (HeLa [5]) was “Active” and the Activity (HeLa [6]) was “Active”. For the same compound, the Activity (HeLa [7]) was “Active”, the Activity (HeLa [8]) was “Active” and the Activity (HeLa [9]) was “Active”. For the same compound, the Activity (HeLa [10]) was “Active”, the Activity (HeLa [11]) was “Active” and the Activity (HeLa [12]) was “Active”. The Activity (HeLa [13]) was “Active”, the Activity (HeLa [14]) was “Active” and the Activity (HeLa [15]) was “Non-toxic”. The Activity (HeLa [16]) was “Active”, the Activity (HeLa [17]) was 70% and the Activity (HeLa [18]) was “Active”. For the same compound, the Activity (HeLa [19]) was “Active”, the Activity (HeLa [20]) was “Active” and the Activity (HeLa [21]) was “Active”. The Activity (HeLa [22]) was 70%, the Activity (HeLa [23]) was “Active” and the Activity (HeLa [24]) was “Active”. The Activity (HeLa [25]) was “Active”, the Activity (HeLa [26]) was “Active” and the Activity (HeLa [27]) was “Active”. For the same compound, the Activity (HeLa [28]) was “Active”, the Activity (HeLa [29]) was “Active” and the Activity (HeLa [30]) was “Active”. The Activity (HeLa [31]) was “Active” and the Activity (HeLa [32]) was “Active”.

Source: ChEMBL document CHEMBL2375353, “Efficient induction of apoptosis in HeLa cells by a novel cationic porphycene photosensitizer” (Eur J Med Chem, 2013)
